Measured values as given in patent US20030199516A1, “Methods of treating infection by drug resistant bacteria” (Genesoft, Inc., priority 2001, published 2003).

Columns and labels:
[1] = test system: S. aureus ATCC 33591; assay: NCCLS broth microdilution MIC; assay type: cell-based, Staphylococcus aureus; details: Col. B = S. aureus ATCC 33591 (MRSA)
Excerpt: (§1) In vitro antibacterial activity data were collected for the following Gram-positive bacteria: Staphylococcus aureus (ATCC 27660, ATCC 33591 and ATCC 43300, all methicillin resistant strains (MRSA's)); Streptococcus pneumoniae (ATCC 51422, a penicillin resistant strain (PRSP)), Enterococcus faecium (ATCC 51559, and/or a vancomycin resistant strain (VRE)). Additionally, antifungal activity data were collected for Candida albicans (ATCC 38247). Minimal inhibition concentrations (MIC's) were determined using the National Committee for Clinical Laboratory Standards (NCCLS) broth microdilution assay in microtiter plates, as set forth in: (1) the guidelines of the National Committee for Clinical Laboratory Standards (NCCLS) Document M7-A4 (NCCLS, 1997); (2) the guidelines of the National Committee for Clinical Laboratory Standards (NCCLS) Document M11-A4 (NCCLS, 1997); and (3) the guidelines and reference method of the National Committee for Clinical Laboratory Standards (NCCLS) Document M27-T (NCCLS, 1995). For antifungal essays, the method recommended in Murray, PR., 1995 Manual of Clinical Microbiology (ASM Press, Washington, D.C.), was employed.

[2] = test system: S. aureus ATCC 27660; assay: NCCLS broth microdilution MIC; assay type: cell-based, Staphylococcus aureus; details: Col. A = S. aureus ATCC 27660 (MRSA)
Excerpt: as §1

[3] = biological target: target sequence ACAATTAAT (352 bp fragment, Plasmid C); assay: Quantitative DNase I footprint titration; assay type: binding; details: 352 bp C, 22° C., pH 7.0, read-out: Dissociation Constant Kd
Excerpt: (§2) Compounds (1) through (20) according to this invention were screened for their ability to bind to specified DNA target sequences, using DNase I footprinting. Generally, the procedure described in Dervan, WO 98/50582 (1998), was followed.
(§3) Three double stranded circular plasmids A, B, and C were used to prepare double stranded DNA-binding probes containing the target sequences for the DNase I footprint titration experiments. Plasmids A, B, and C had nucleotide sequences given by SEQ ID NO. I, SEQ ID NO. II, and SEQ ID NO. III, respectively.
(§4) The 3′-P32 end-labeled EcoRI/PvuII fragments from each plasmid were prepared by digesting the plasmids with EcoRI and PvuII with simultaneous fill-in using Sequenase v. 2.0, [alpha-P32]-deoxyadenosine-5′-triphosphate, and [alpha-P32]-thymidine-5′-triphosphate, and isolating the cloned fragments by nondenaturing gel electrophoresis. A and G sequencing reactions were carried out as described (See Maxam and Gilbert, Methods Enzymol., 1980, 65, 499-560; Iverson and Dervan, Methods Enzymol., 1987, 15, 7823-7830; Sambrook et al., 1989, Molecular Cloning, 2nd ed., Cold Spring Harbor Laboratory Press: Cold Spring Harbor, N.Y.) Standard methods were used for all DNA manipulations (Sambrook et al., ibid.) The cut sites for EcoRI and PvuII are indicated by bars in the respective maps of Plasmids A, B, and C in FIGS. 5, 6, and 7.
(§5) The 351 base pair dsDNA restriction fragment (SEQ ID NO. IV) of Plasmid A contained the target sequences AAAAAGCAAAAA, AAAAAGACAAAAA, and AAAAAGTACAAAAA. The 310 base pair dsDNA restriction fragment (SEQ ID NO. V) of Plasmid B contained the target sequences AGTACT, AATACT, and ATTACT. The 352 base pair dsDNA restriction fragment (SEQ ID NO. VI) of Plasmid C contained the target sequences TGACAATTAAT, GACAATTAATCA, AATTAATCAT, ACAATTA, and ACAATTAAT. These fragments were used for quantitative DNase I footprinting experiments. Compounds used in the method of this invention bind to at least one of the target sites with a equal to or less than 100 nM, preferably equal to or less than 50 nM, and more preferably equal to or less than 20 nM. The target sequences were selected for the identity with, or similarity to, promoter sites for bacterial genes.
(§6) Quantitative DNase I footprint titration experiments were carried out as described previously (Dervan, WO 98/50582, 1998) with the following changes. All reactions were carried out in a total volume of 400 μL, with compound stock solution or water added to 15,000 cpm radiolabeled restriction fragment affording final solution conditions of 10 mM Tris HCl, 10 mM KCl, 10 mM MgCl2, 5 mM CaCl2, pH 7.0 and 0.01 nM, 0.1 nM, 1.0 nM, 10.0 nM compound or no compound for reference lanes. The compounds were allowed to equilbrate at 22° C. for 16 h. Footprinting reactions were initiated with addition of 10 μL of a DNase I stock solution (at the appropriate concentration to give ˜50% intact DNA) containing 1 mM DTT and allowed to proceed for 7 min at 22° C. The reactions were stopped, ethanol precipitated, resuspended in loading buffer, heat denatured, and placed on ice as described previously (Dervan WO 98/50582, 1998). The reaction products were separated on a precast 8% polyacrylamide denaturing sequencing Castaway gel with 32 preformed wells from Stratagene in 1×TBE at 2000 V. Gels were dried according to the manufacturer and exposed to a storage phosphor screen (Molecular Dynamics). Quantitation and data analysis were carried out as described in Dervan, WO 98/50582, 1998.

[4] = test system: Candida albicans ATCC 38247; assay: Antifungal MIC; assay type: cell-based; details: Col. F = C. albicans ATCC 38247
Excerpt: as §1

[5] = test system: Enterococcus faecium ATCC 51559; assay: NCCLS broth microdilution MIC; assay type: cell-based; details: Col. D = E. faecium ATCC 51559 (VRE)
Excerpt: as §1

[6] = test system: Streptococcus pneumoniae ATCC 51422; assay: NCCLS broth microdilution MIC; assay type: cell-based; details: Col. E = S. pneumoniae ATCC 51422 (PRSP)
Excerpt: as §1

[7] = biological target: target sequence AATTAATCAT (352 bp fragment, Plasmid C); assay: Quantitative DNase I footprint titration; assay type: binding; details: 352 bp C, 22° C., pH 7.0, read-out: Dissociation Constant Kd
Excerpt: as §2, §3, §4, §5, §6

[8] = biological target: target sequence ATTACT (310 bp fragment, Plasmid B); assay: Quantitative DNase I footprint titration; assay type: binding; details: 310 bp B, 22° C., pH 7.0, read-out: Dissociation Constant Kd
Excerpt: as §2, §3, §4, §5, §6

[9] = biological target: target sequence AATACT (310 bp fragment, Plasmid B); assay: Quantitative DNase I footprint titration; assay type: binding; details: 310 bp B, 22° C., pH 7.0, read-out: Dissociation Constant Kd
Excerpt: as §2, §3, §4, §5, §6

[10] = biological target: target sequence AGTACT (310 bp fragment, Plasmid B); assay: Quantitative DNase I footprint titration; assay type: binding; details: 310 bp B, 22° C., pH 7.0, read-out: Dissociation Constant Kd
Excerpt: as §2, §3, §4, §5, §6

[11] = test system: S. aureus ATCC 43300; assay: NCCLS broth microdilution MIC; assay type: cell-based, Staphylococcus aureus; details: Col. C = S. aureus ATCC 43300 (MRSA)
Excerpt: as §1

[12] = test system: methicillin resistant Staphylococcus aureus ATCC 33591; assay: Mouse protection assay; assay type: in vivo; details: balb/c mice, 50 mg/kg intravenously at 2, 8, 18 and 24 hours post infection; vehicle 14
Experimental: (§7) A S. aureus ATCC 33591 culture was grown to log phase overnight and diluted in phosphate buffered saline (pH 7.2) to an optical density of about 0.1 at 600 nm, giving an approximate concentration of 10^8 cfu/mL. Porcine mucin was added to the suspension to a final concentration of 5% mucin. The suspension was diluted 1:100 for a final concentration of 10^6 cfu/mL.
Female balb/c mice (20 g body weight) were injected intraperitoneally with 0.5 mL of bactenal suspension (10^6 cfu/mL). Vehicle (phosphate buffered saline, pH 7.2) or test compound were administered intravenously at 2, 8, 18, and 24 hours post infection. The animals were monitored twice daily and survival counts were recorded up to 48 hours post infection.

[13] = biological target: target sequence GACAATTAATCA (352 bp fragment, Plasmid C); assay: Quantitative DNase I footprint titration; assay type: binding; details: 352 bp C, 22° C., pH 7.0, read-out: Dissociation Constant Kd
Excerpt: as §2, §3, §4, §5, §6

[14] = test system: methicillin resistant Staphylococcus aureus ATCC 33591; assay: Murine neutropenic thigh model; assay type: in vivo; details: neutropenic CF1 mice, 80 mg/kg intravenously 2 h post infection, 6 hr after treatment, vehicle 7.83
Experimental: as §7, with “cfu/mL.” for “cfu/mL. Porcine mucin was added to the suspension to a final concentration of 5% mucin.”, “1:100 in phosphate buffered saline (pH 7.2)” for “1:100”
Outbred female CFI mice (approx. 20 gram body weight) were rendered netutropenic by treatment with cyclophosphamide (200 mg/kg body weight, intraperitoneal injection) at 2 and 4 days prior to inoculation. Groups of 5 mice were inoculated with 0.05 mL of the bacteria (approx. 10^6 cfu/mL) into the anterior thigh. Each group was treated intravenously two hours post infection with vehicle (phosphate buffered saline) or test compound. The mice were sacrificed at either 6 or 24 hrs after treatment and thighs were collected aseptically. Each thigh was weighed, placed into sterile saline, and homogenized. The tissue homogenates were diluted appropriately for plating on agar plates. Colony counts were recorded (cfu/gram) and compared to control groups.

Row | Kd [3] [nM] | Minimum Inhibitory Concentration (MIC) [6] | Kd [13] [nM] | SMILES | Minimum Inhibitory Concentration (MIC) [1] | Minimum Inhibitory Concentration (MIC) [2] | Minimum Inhibitory Concentration (MIC) [4] [µg/mL] | Minimum Inhibitory Concentration (MIC) [5] | Kd [7] [nM] | Kd [8] [nM] | Kd [9] [nM] | MIC ([2]; Staphylococcus aureus, read-out: Minimum Inhibitory Concentration (MIC)) [µg/mL] | Kd [10] [nM] | MIC ([4]; Candida albicans, ATCC38247, read-out: Minimum Inhibitory Concentration (MIC)) [µg/mL] | Minimum Inhibitory Concentration (MIC) [11] | Survival at 48 hrs [12] [%] | Colony Count [14] [log cfu/gram]
1 | 5 | + (+ = MIC ≦ 2) | – | Cn1cc(NC(=O)c2cc(NC(=O)c3cc(NC(=O)c4cc5ccccc5cn4)cn3C)cn2C)cc1C(=O)NCCc1cccnc1 [Compound 14] | − (− = MIC > 2) | ++ (++ = MIC ≦ 1) | >32 | − (− = MIC > 2) | – | – | – | – | – | – | – | – | –
2 | – | – | – | Cc1cc(NC(=O)c2cc(NC(=O)c3cc(NC(=O)c4nsc(NCCN5CCCCC5)c4Cl)cn3C)cn2C)sn1 [Compound 13] | – | ++ (++ = MIC ≦ 1) | >32 | – | 10 | 5 | – | – | – | – | – | – | –
3 | – | – | – | Cn1cc(NC(=O)c2cc(NC(=O)c3cc(NC(=O)c4cc5ccccc5cn4)no3)cn2C)cc1C(=O)NCCN1CCOCC1 [Compound 20] | – | – | – | – | 5 | – | – | ≤ 1 | 10 | > 32 | – | – | –
4 | – | – | – | Cn1cc(NC(=O)c2cc(NC(=O)c3cc(NC(=O)c4sccc4Cl)cn3C)cn2C)cc1C(=O)NCCN1CCOCC1 [Compound 6] | + (+ = MIC ≦ 2) | – | >32 | ++ (++ = MIC ≦ 1) | 20 | – | – | – | – | – | − (− = MIC > 2) | 86 | –
5 | – | ++ (++ = MIC ≦ 1) | 0.1 | Cn1cc(NC(=O)c2cc(NC(=O)c3cc(NC(=O)c4sc5ccccc5c4Cl)c[nH]3)cn2C)cc1C(=O)NCCN1CCOCC1 [Compound 9] | ++ (++ = MIC ≦ 1) | ++ (++ = MIC ≦ 1) | >32 | + (+ = MIC ≦ 2) | – | – | – | – | – | – | + (+ = MIC ≦ 2) | – | 6.17
6 | 1 | ++ (++ = MIC ≦ 1) | – | Cn1cc(NC(=O)c2cc3ccccc3cn2)cc1C(=O)Nc1cc(C(=O)Nc2cc(C(=O)NCCN3CCCCC3)ns2)n(C)c1 [Compound 19] | + (+ = MIC ≦ 2) | ++ (++ = MIC ≦ 1) | >32 | ++ (++ = MIC ≦ 1) | – | – | – | – | – | – | – | – | –

Row | SMILES | Kd [3] [nM] | Minimum Inhibitory Concentration (MIC) [6] | Kd [13] [nM] | Minimum Inhibitory Concentration (MIC) [1] | Minimum Inhibitory Concentration (MIC) [2] | Minimum Inhibitory Concentration (MIC) [4] [µg/mL] | Minimum Inhibitory Concentration (MIC) [5] | Kd [7] [nM] | Kd [8] [nM] | Kd [9] [nM] | MIC ([2]; Staphylococcus aureus, read-out: Minimum Inhibitory Concentration (MIC)) [µg/mL] | Kd [10] [nM] | MIC ([4]; Candida albicans, ATCC38247, read-out: Minimum Inhibitory Concentration (MIC)) [µg/mL] | Minimum Inhibitory Concentration (MIC) [11] | Survival at 48 hrs [12] [%] | Colony Count [14] [log cfu/gram]
7 | Cn1cc(NC(=O)c2cc(NC(=O)c3cc(NC(=O)c4ccc(Cl)cc4F)c[nH]3)cn2C)cc1C(=O)NCCN1CCOCC1 [Compound 10] | – | − (− = MIC > 2) | – | − (− = MIC > 2) | + (+ = MIC ≦ 2) | 8 to 32 | + (+ = MIC ≦ 2) | 1 | – | 5 | – | – | – | – | – | –
8 | Cn1cc(NC(=O)c2cc3ccccc3cn2)cc1C(=O)Nc1cc(C(=O)Nc2cc(C(=O)NCCN3CCOCC3)n(CCN3CCOCC3)c2)n(C)c1 [Compound 17] | – | ++ (++ = MIC ≦ 1) | – | − (− = MIC > 2) | ++ (++ = MIC ≦ 1) | >32 | ++ (++ = MIC ≦ 1) | 5 | – | – | – | < 100 | – | – | – | –
